Measurements: the NIST ThermoML archive (doi:10.1007/s10765-007-0151-9)
Where “and” joins values, the source holds several entries; their conditions need not be identical. Equal values may be shown once. Numbers after ± are expanded uncertainties.

Conditions: 101.33 kPa, Liquid, Pulse-echo method

## [Pb] [lead]
610 K
  speed of sound: 1834 ± 30 m/s
626 K
  speed of sound: 1810.5 ± 30 m/s
678 K
  speed of sound: 1790.3 ± 29 m/s
703 K
  speed of sound: 1784 ± 29 m/s
787 K
  speed of sound: 1769.8 ± 29 m/s
814 K
  speed of sound: 1749 ± 29 m/s
897 K
  speed of sound: 1729.8 ± 28 m/s
1078 K
  speed of sound: 1688 ± 28 m/s

## [Ge] [germanium]
1216 K
  speed of sound: 2690.9 ± 44 m/s and 2689.9 ± 44 m/s
1233 K
  speed of sound: 2690.8 ± 44 m/s and 2691.1 ± 44 m/s
1252 K
  speed of sound: 2689.5 ± 44 m/s and 2696.2 ± 44 m/s
1270 K
  speed of sound: 2692 ± 44 m/s and 2695 ± 44 m/s
1289 K
  speed of sound: 2690.8 ± 44 m/s and 2700.4 ± 44 m/s
1307 K
  speed of sound: 2690.6 ± 44 m/s and 2695 ± 44 m/s
1352 K
  speed of sound: 2673.6 ± 44 m/s and 2678.4 ± 44 m/s
1398 K
  speed of sound: 2662.8 ± 44 m/s and 2666.3 ± 44 m/s
1443 K
  speed of sound: 2652.5 ± 44 m/s and 2654.4 ± 44 m/s

## [Si] [silicon]
1723 K
  speed of sound: 3916.1 ± 64 m/s
1748 K
  speed of sound: 3929 ± 64 m/s
1755 K
  speed of sound: 3945.9 ± 65 m/s
1789 K
  speed of sound: 3973.3 ± 65 m/s
1795 K
  speed of sound: 3969 ± 65 m/s
1823 K
  speed of sound: 3976.3 ± 65 m/s
1852 K
  speed of sound: 4003 ± 66 m/s
1889 K
  speed of sound: 4020 ± 66 m/s

## [Sn] [tin]
608 K
  speed of sound: 2470 ± 41 m/s
804 K
  speed of sound: 2408 ± 40 m/s
814 K
  speed of sound: 2416 ± 40 m/s
919 K
  speed of sound: 2379 ± 39 m/s
1012 K
  speed of sound: 2366 ± 39 m/s
1025 K
  speed of sound: 2332 ± 38 m/s
1218 K
  speed of sound: 2306 ± 38 m/s
1453 K
  speed of sound: 2234 ± 37 m/s
1463 K
  speed of sound: 2242 ± 37 m/s
